Assay results reported in ChEMBL document CHEMBL4842322, “A naphthalimide-polyamine conjugate preferentially accumulates in hepatic carcinoma metastases as a lysosome-targeted antimetastatic agent” (Eur J Med Chem, 2021).

Tests used:
Huh-7 [1] = test: Cytotoxicity against human Huh-7 cells assessed as inhibition of cell growth incubated for 48 hrs by MTT assay; type: functional, cell-based; conditions: Huh-7, 48 h
MDA-MB-231 = test: Cytotoxicity against human MDA-MB-231 cells assessed as inhibition of cell growth incubated for 48 hrs by MTT assay; type: functional, cell-based; conditions: MDA-MB-231, 48 h
MCF7 = test: Cytotoxicity against human MCF7 cells assessed as inhibition of cell growth incubated for 48 hrs by MTT assay; type: functional, cell-based; conditions: MCF7, 48 h
A549 [2] = test: Cytotoxicity against human A549 cells assessed as inhibition of cell growth incubated for 48 hrs by MTT assay; type: functional, cell-based; conditions: A549, 48 h
A549 [3] = test: Cytotoxicity against cisplatin-resistant human A549 cells assessed as inhibition of cell growth incubated for 48 hrs by MTT assay; type: functional, cell-based; conditions: A549, 48 h
[4] = Resistance factor, ratio of IC50 for cisplatin-resistant human A549 cells to IC50 for human A549 cells; type: functional
Huh-7 [5] = test: Cytotoxicity against human Huh-7 cells assessed as inhibition of cell growth measured after 24 hrs by MTT assay; type: functional, cell-based; conditions: Huh-7, 24 h
L02 = test: Cytotoxicity against human HL7702 cells assessed as inhibition of cell growth measured after 24 hrs by MTT assay; type: cell-based; conditions: L02, 24 h
[6] = Selectivity index, ratio of IC50 for human HL7702 cells to IC50 for human HepG2 cells; type: toxicity; conditions: HL7702 cells and HepG2 cells, read-out: Ratio IC50
[7] = Selectivity index, ratio of IC50 for human HL7702 cells to IC50 for human Huh-7 cells; type: toxicity; conditions: HL7702 cells and Huh-7 cells, read-out: Ratio IC50
[8] = Antitumor activity against human HCC cells xenografted in BALB/c mouse assessed as inhibition of tumor weight at 5 mg/kg, iv administered once daily for 7 days; type: functional; conditions: 168 h, time 7 day
[9] = Antimetastatic activity against human HCC cells xenografted in BALB/c mouse assessed as reduction lung metastatic nodules at 5 mg/kg, iv administered once every 2 days for 14 days; type: functional; conditions: 336 h, time 14 day
HepG2 = test: Cytotoxicity against human HepG2 cells assessed as inhibition of cell growth incubated for 48 hrs by MTT assay; type: functional, cell-based; conditions: HepG2, 48 h

Compound	IC50 (Huh-7 [1]) [µM]	IC50 (MDA-MB-231) [µM]	IC50 (MCF7) [µM]	IC50 (A549 [2]) [µM]	IC50 (A549 [3]) [µM]	Ratio IC50 [4]	IC50 (Huh-7 [5]) [µM]	IC50 (L02) [µM]	selectivity ratio [6]	selectivity ratio [7]	inhibition in vivo at 5 mg/kg [8] [%]	inhibition in vivo at 5 mg/kg [9] [%]	IC50 (HepG2) [µM]
CN(C)CCN1C(=O)c2cccc3cc(N)cc(c23)C1=O [AMONAFIDE]	8.52	15.2	10.9	23.5	9.56	0.41	8.52	11.6	1.23	1.36	46.9	55.8	
CN(C)CCN1C(=O)c2cccc3cc(NC(=O)CN)cc(c23)C1=O	12.7	> 30	> 30	> 30	> 30								> 30
NCCCCNCCCCN1C(=O)c2cccc3cc(NC(=O)CN)cc(c23)C1=O	28.7	> 30	> 30	> 30	> 30								> 30
